Experimental data: publication PMC8445441, “Elucidating the mechanism by which synthetic helper peptides sensitize Pseudomonas aeruginosa to multiple antibiotics” (PLoS Pathogens, 2021)
Where two headings read alike, the source gives them in different places.

Key:
[1] = tested on: P. aeruginosa HM-214; conditions: strain HM-214; antibiotic + D-11 (MICb/MICbc 128/4)
How it was run: (§1)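 Triplicate microdilution MICs: MHB, two-fold series, equal-volume inoculum from ~1 × 10^6 CFU/mL suspension, 37 °C, 18 h, lowest concentration lacking visible growth.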

[2] = tested on: P. aeruginosa AUMC-Pa-5; test: microbe, parasite or virus in culture; conditions: strain AUMC-Pa-5
How it was run: as §1

[3] = tested on: P. aeruginosa AUMC-Pa-4; test: microbe, parasite or virus in culture
How it was run: as §1

[4] = tested on: P. aeruginosa PAO1; test: microbe, parasite or virus in culture; conditions: PAO1
How it was run: as §1

[5] = tested on: P. aeruginosa AUMC-Pa-6; test: microbe, parasite or virus in culture; conditions: strain AUMC-Pa-6, unit not given
How it was run: as §1

[6] = tested on: P. aeruginosa AUMC-Pa-3; test: microbe, parasite or virus in culture
How it was run: as §1

[7] = tested on: P. aeruginosa AUMC-Pa-1; conditions: strain AUMC-Pa-1; antibiotic + D-11 (MICb/MICbc 128/4)
How it was run: as §1

[8] = tested on: P. aeruginosa AUMC-Pa-2; conditions: strain AUMC-Pa-2; antibiotic + D-11 (MICb/MICbc 64/4)
How it was run: as §1

[9] = tested on: clinical P. aeruginosa isolates; test: microbe, parasite or virus in culture; conditions: Pseudomonas aeruginosa, 18 h, antibiotic alone
How it was run: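 MIC is the lowest drug concentration showing no visible growth after 18 h at 37 °C. Two-fold dilutions in MHB were combined with an equal volume of bacterial suspension (about 1 × 10^6 CFU/mL), following CLSI broth microdilution, in triplicate.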

[10] = tested on: P. aeruginosa NR-31040; test: microbe, parasite or virus in culture; design: MICa: MIC of the antibiotic / MICac: MIC of the antibiotic in the combination: unit not given beside the values
How it was run: as §1

[11] = tested on: P. aeruginosa PA14; test: microbe, parasite or virus in culture; design: MICa: MIC of the antibiotic / MICac: MIC of the antibiotic in the combination: unit not given beside the values
How it was run: as §1

[12] = tested on: P. aeruginosa ATCC27853; test: microbe, parasite or virus in culture; design: MICa: MIC of the antibiotic / MICac: MIC of the antibiotic in the combination: unit not given beside the values; conditions: Pseudomonas aeruginosa, ATCC27853, 18 h, read-out: MICa: MIC of the antibiotic
How it was run: as §1

[13] = tested on: P. aeruginosa PAK; test: microbe, parasite or virus in culture; design: MICa: MIC of the antibiotic / MICac: MIC of the antibiotic in the combination: unit not given beside the values
How it was run: as §1

[14] = tested on: P. aeruginosa NR-31041; test: microbe, parasite or virus in culture; design: MICa: MIC of the antibiotic / MICac: MIC of the antibiotic in the combination: unit not given beside the values
How it was run: as §1

- MICa: MIC of the antibiotic ([2]; antibiotic alone, unit not given): 32
- MICac: MIC of the antibiotic in the combination ([2]; with D-11 at MICbc 4, unit not given): 16
- MIC ([3]; Pseudomonas aeruginosa, AUMCPA4, 18 h, read-out: MICa: MIC of the antibiotic): 16 µM
- MICac: MIC of the antibiotic in the combination ([3]; strain AUMC-Pa-4, with D-11 at MICbc 4, unit not given): 0.25
- MIC ([4]; Pseudomonas aeruginosa, PAO1, 18 h, read-out: MICa: the MIC of antibiotics, S3 Table, antibiotic alone): 32 µM
- MICac: the MIC for the antibiotic in the combination ([4]; S3 Table, with 2 μM D-11): 0.0625 µM
- MICac: the MIC for the antibiotic in the combination ([4]; S3 Table, with 4 μM D-11): 0.01562 µM
- MICa: MIC of the antibiotic ([5]; antibiotic alone): 32
- MICac: MIC of the antibiotic in the combination ([5]; with D-11 at MICbc 4): 2
- MIC ([6]; Pseudomonas aeruginosa, AUMCPA3, 18 h, read-out: MICa: MIC of the antibiotic): 16 µM
- MICac: MIC of the antibiotic in the combination ([6]; strain AUMC-Pa-3, with D-11 at MICbc 4, unit not given): 0.016
- MIC ([9]; read-out: Antibiotic sensibility (MIC) of clinical P. aeruginosa isolate AUMC-Pa-1, strain AUMC-Pa-1): 32 µM
- MIC ([9]; read-out: Antibiotic sensibility (MIC) of clinical P. aeruginosa isolate AUMC-Pa-2, strain AUMC-Pa-2): 16 µM
- MIC ([9]; read-out: Antibiotic sensibility (MIC) of clinical P. aeruginosa isolate AUMC-Pa-3, strain AUMC-Pa-3): 16 µM
- MIC ([9]; read-out: Antibiotic sensibility (MIC) of clinical P. aeruginosa isolate AUMC-Pa-4, strain AUMC-Pa-4): 16 µM
- MIC ([9]; read-out: Antibiotic sensibility (MIC) of clinical P. aeruginosa isolate AUMC-Pa-5, strain AUMC-Pa-5): 32 µM
- MIC ([9]; read-out: Antibiotic sensibility (MIC) of clinical P. aeruginosa isolate AUMC-Pa-6, strain AUMC-Pa-6): 32 µM
- MIC ([9]; read-out: Antibiotic sensibility (MIC) of clinical P. aeruginosa isolate HM-214, strain HM-214): 16 µM
- MIC ([9]; read-out: Antibiotic sensibility (MIC) of clinical P. aeruginosa isolate NR-31040, strain NR-31040): 16 µM
- MIC ([9]; read-out: Antibiotic sensibility (MIC) of clinical P. aeruginosa isolate NR-31041, strain NR-31041): 32 µM
- MIC ([10]; Pseudomonas aeruginosa, NR31040, 18 h, read-out: MICa: MIC of the antibiotic): 16 µM
- MICac: MIC of the antibiotic in the combination ([10]; strain NR-31040, with D-11 at MICbc 4, unit not given): 0.25
- MIC ([11]; Pseudomonas aeruginosa, PA14, 18 h, read-out: MICa: MIC of the antibiotic): > 128 µM
- MICac: MIC of the antibiotic in the combination ([11]; strain PA14, with D-11 at MICbc 4, unit not given): 2
- MIC [12]: 16 µM
- MIC ([13]; Pseudomonas aeruginosa, 18 h, read-out: MICa: MIC of the antibiotic): 16 µM
- MICac: MIC of the antibiotic in the combination ([13]; strain PAK, with D-11 at MICbc 4, unit not given): 0.063
- MIC ([14]; Pseudomonas aeruginosa, NR31041, 18 h, read-out: MICa: MIC of the antibiotic): 32 µM
- MICac: MIC of the antibiotic in the combination ([14]; strain NR-31041, with D-11 at MICbc 4, unit not given): 0.063
Structure (SMILES): CO[C@H]1/C=C/O[C@@]2(C)Oc3c(C)c(O)c4c(O)c(c(/C=N/N5CCN(C)CC5)c(O)c4c3C2=O)NC(=O)/C(C)=C\C=C\[C@H](C)[C@H](O)[C@@H](C)[C@@H](O)[C@@H](C)[C@H](OC(C)=O)[C@@H]1C [Rifampicin]
- FICI [1]: 0.047
- FICI ([2]; antibiotic + D-11 (MICb/MICbc 64/4)): 0.563
- FICI ([3]; strain AUMC-Pa-4, antibiotic + D-11 (MICb/MICbc 128/4)): 0.047
- FICI ([4]; S3 Table, antibiotic + 2 μM D-11): 0.064
- FICI ([6]; strain AUMC-Pa-3, antibiotic + D-11 (MICb/MICbc 128/4)): 0.032
- FICI [7]: 0.032
- FICI [8]: 0.064
- FICI ([10]; strain NR-31040, antibiotic + D-11 (MICb/MICbc 128/4)): 0.063
- FICI ([11]; strain PA14, antibiotic + D-11 (MICb/MICbc 128/4)): 0.039
- FICI ([13]; strain PAK, antibiotic + D-11 (MICb/MICbc 64/4)): 0.066
- FICI ([14]; strain NR-31041, antibiotic + D-11 (MICb/MICbc 64/4)): 0.064
